Where “and” joins values, the source holds several entries; their conditions need not be identical. Identical values can stand only once. Inconclusive results and toxic doses are left out.
Tested on: B6C3F1 mice, Lewis lung carcinoma iv, survival T/C
Test: NCI In Vivo Anticancer Drug Screen. Data for tumor model Lewis Lung Carcinoma (intravenous) in B6C3F1 mice
Conditions: endpoint: median survival time, schedule: Q01DX009 (ip), higher = longer survival
Description: The antitumor activity of compounds was measured in mice bearing transplantable tumors. Survival or tumor size were measured and the results are expressed as the measurement made in the treated group (T) divided by the measurement made in the vehicle treated control group (C). The tumor model used in this assay is Lewis Lung Carcinoma (intravenous) in B6C3F1 mice

[1] = dose: 6.25 mg/kg/injection, vehicle: Klucel (hydroxypropylcellulose) (HPC)
[2] = dose: 25.0 mg/kg/injection, vehicle: Klucel (hydroxypropylcellulose) (HPC)
[3] = dose: 50.0 mg/kg/injection, vehicle: Klucel (hydroxypropylcellulose) (HPC)
[4] = dose: 100.0 mg/kg/injection, vehicle: Klucel (hydroxypropylcellulose) (HPC)
[5] = dose: 25.0 mg/kg/injection, vehicle: saline
[6] = dose: 50.0 mg/kg/injection, vehicle: saline
[7] = dose: 100.0 mg/kg/injection, vehicle: saline
[8] = dose: 200.0 mg/kg/injection, vehicle: saline
[9] = dose: 6.25 mg/kg/injection, vehicle: saline with Tween-80
[10] = dose: 12.5 mg/kg/injection, vehicle: saline with Tween-80
[11] = dose: 12.5 mg/kg/injection, vehicle: saline
[12] = dose: 25.0 mg/kg/injection, vehicle: saline with Tween-80
[13] = dose: 50.0 mg/kg/injection, vehicle: saline with Tween-80

SMILES: O=C(O)c1cc(Cc2ccc(O)c(C(=O)O)c2)ccc1O (tested in a mixture with another compound)
- T/C [1]: 107 % of control
- T/C (dose: 12.5 mg/kg/injection, vehicle: Klucel (hydroxypropylcellulose) (HPC)): 97 % of control
- T/C [2]: 101 % of control
- T/C [3]: 97 % of control
- T/C [4]: 95 % of control

SMILES: C=C(C(=O)O)C(N)C(=O)O (centres undefined)
- T/C [5]: 95 % of control
- T/C [6]: 102 % of control
- T/C [7]: 100 % of control
- T/C [8]: 117 % of control

SMILES: O=C1C(O)=C(c2ccccc2)C(=O)C(O)=C1c1ccccc1
- T/C (dose: 1.56 mg/kg/injection, vehicle: saline): 98 % of control
- T/C (dose: 3.12 mg/kg/injection, vehicle: saline): 98 % of control and 117 % of control
- T/C [9]: 99 % of control
- T/C (dose: 6.25 mg/kg/injection, vehicle: saline): 99 % of control and 118 % of control
- T/C [10]: 101 % of control
- T/C [11]: 108 % of control and 113 % of control
- T/C [12]: 101 % of control
- T/C [5]: 98 % of control and 104 % of control
- T/C [13]: 102 % of control
- T/C [6]: 94 % of control and 99 % of control

SMILES: C[C@H](N)C(=O)N[C@@H]1[C@H]2C(=C(O)C[C@@H](O)[C@@H]2O)C(=O)O[C@@H]1C
- T/C (dose: 75.0 mg/kg/injection, vehicle: saline): 102 % of control and 106 % of control
- T/C (dose: 150.0 mg/kg/injection, vehicle: saline): 105 % of control and 106 % of control
- T/C (dose: 300.0 mg/kg/injection, vehicle: saline): 107 % of control and 110 % of control
- T/C (dose: 600.0 mg/kg/injection, vehicle: saline): 114 % of control and 120 % of control
- T/C (dose: 1200.0 mg/kg/injection, vehicle: saline): 117 % of control

SMILES: COc1cc2cc[n+](C)c(Cc3ccccc3)c2cc1OC
- T/C (dose: 3.13 mg/kg/injection, vehicle: saline with Tween-80): 112 % of control
- T/C [9]: 120 % of control
- T/C [10]: 96 % of control
- T/C [12]: 99 % of control
- T/C [13]: 91 % of control

SMILES: CCO/C=C1\SC(=S)N(c2ccccc2C)C1=O
- T/C [10]: 104 % of control
- T/C [12]: 110 % of control
- T/C [13]: 98 % of control
- T/C (dose: 100.0 mg/kg/injection, vehicle: saline with Tween-80): 116 % of control
- T/C (dose: 200.0 mg/kg/injection, vehicle: saline with Tween-80): 108 % of control
- T/C (dose: 400.0 mg/kg/injection, vehicle: saline with Tween-80): 89 % of control

SMILES: C[CH2][Pb]([CH2]C)([CH2]C)[O]C(=O)COc1ccccc1
- T/C (dose: 0.08 mg/kg/injection, vehicle: saline with Tween-80): 107 % of control
- T/C (dose: 0.15 mg/kg/injection, vehicle: saline with Tween-80): 99 % of control
- T/C (dose: 0.3 mg/kg/injection, vehicle: saline with Tween-80): 99 % of control
- T/C (dose: 0.6 mg/kg/injection, vehicle: saline with Tween-80): 109 % of control
- T/C (dose: 1.2 mg/kg/injection, vehicle: saline with Tween-80): 108 % of control

SMILES: C[CH2][Sn]1([CH2]C)[O]OC(c2ccccc2)[O]1 (centres undefined)
- T/C (dose: 0.78 mg/kg/injection, vehicle: saline with Tween-80): 97 % of control
- T/C (dose: 1.56 mg/kg/injection, vehicle: saline with Tween-80): 100 % of control
- T/C (dose: 3.12 mg/kg/injection, vehicle: saline with Tween-80): 100 % of control
- T/C [10]: 95 % of control

SMILES: c1cc[c]([Sn]([NH]c2ncnc3[nH]cnc23)([NH]c2ncnc3[nH]cnc23)[c]2ccccc2)cc1
- T/C [11]: 103 % of control
- T/C [5]: 95 % of control
- T/C [6]: 106 % of control
- T/C [7]: 107 % of control
- T/C [8]: 98 % of control

SMILES: Cc1ccc(C2NC(=S)N3C(c4ccc(C)cc4)NC(=S)N23)cc1 (centres undefined)
- T/C [2]: 103 % of control
- T/C [3]: 101 % of control
- T/C [4]: 93 % of control
- T/C (dose: 200.0 mg/kg/injection, vehicle: Klucel (hydroxypropylcellulose) (HPC)): 99 % of control
- T/C (dose: 400.0 mg/kg/injection, vehicle: Klucel (hydroxypropylcellulose) (HPC)): 98 % of control
- T/C (dose: 800.0 mg/kg/injection, vehicle: Klucel (hydroxypropylcellulose) (HPC)): 109 % of control

SMILES: [N-]=[N+]=CC(=O)CCC(=O)C=[N+]=[N-]
- T/C (dose: 0.39 mg/kg/injection, vehicle: DMSO): 92 % of control
- T/C (dose: 0.78 mg/kg/injection, vehicle: DMSO): 95 % of control
- T/C (dose: 1.5 mg/kg/injection, vehicle: DMSO): 121 % of control
- T/C (dose: 3.0 mg/kg/injection, vehicle: DMSO): 112 % of control
- T/C (dose: 6.0 mg/kg/injection, vehicle: DMSO): 115 % of control
- T/C (dose: 25.0 mg/kg/injection, vehicle: DMSO): 108 % of control

SMILES: CCCCNC(C)C1(O)Cc2c(O)c3c(c(O)c2C(OC2CC(N)C(O)C(C)O2)C1)C(=O)c1c(OC)cccc1C3=O (centres undefined)
- T/C (dose: 10.0 mg/kg/injection, vehicle: water): 108 % of control
- T/C (dose: 20.0 mg/kg/injection, vehicle: water): 101 % of control
- T/C (dose: 40.0 mg/kg/injection, vehicle: water): 107 % of control
- T/C (dose: 80.0 mg/kg/injection, vehicle: water): 113 % of control

SMILES: NC(=O)NO
- T/C [6]: 94 % of control
- T/C [7]: 98 % of control
- T/C [8]: 96 % of control

SMILES: CO[C@H]1Nc2c(ccc(C)c2O)C(=O)N2C=C(/C=C/C(N)=O)C[C@@H]12
- T/C (dose: 0.06 mg/kg/injection, vehicle: saline + alcohol): 105 % of control
- T/C (dose: 0.12 mg/kg/injection, vehicle: saline + alcohol): 100 % of control
- T/C (dose: 0.25 mg/kg/injection, vehicle: saline + alcohol): 113 % of control

SMILES: CCS/C(SC)=C(/c1ccccc1)[P+](c1ccccc1)(c1ccccc1)c1ccccc1
- T/C (dose: 0.12 mg/kg/injection, vehicle: Klucel (hydroxypropylcellulose) (HPC)): 106 % of control
- T/C (dose: 0.25 mg/kg/injection, vehicle: Klucel (hydroxypropylcellulose) (HPC)): 108 % of control
- T/C (dose: 0.5 mg/kg/injection, vehicle: Klucel (hydroxypropylcellulose) (HPC)): 101 % of control
- T/C (dose: 1.0 mg/kg/injection, vehicle: Klucel (hydroxypropylcellulose) (HPC)): 104 % of control
- T/C (dose: 1.5 mg/kg/injection, vehicle: Klucel (hydroxypropylcellulose) (HPC)): 100 % of control
- T/C (dose: 2.0 mg/kg/injection, vehicle: Klucel (hydroxypropylcellulose) (HPC)): 93 % of control

SMILES: COc1c(C=O)c2c(c(OC)c1OC)-c1ccc(OC)c(=O)cc1[C@@H](NC(C)=O)CC2
- T/C (dose: 1.56 mg/kg/injection, vehicle: Klucel (hydroxypropylcellulose) (HPC)): 95 % of control
- T/C (dose: 3.12 mg/kg/injection, vehicle: Klucel (hydroxypropylcellulose) (HPC)): 98 % of control
- T/C [1]: 95 % of control

SMILES: O=C(O)CC(NC(=O)CP(=O)(O)O)C(=O)O (centres undefined)
- T/C [11]: 99 % of control
- T/C [5]: 103 % of control
- T/C [7]: 158 % of control
- T/C [8]: 187 % of control

From PubChem BioAssay AID276 (DTP/NCI, 2004)
